Test results taken from patent publication US12319652B2, “Salts and solid forms of (R)-1-(5-methoxy-1H-indol-1-yl)-N,N-dimethylpropan-2-amine” (priority 2021, dated 2025).
Like-named read-outs stand apart in the source and are kept apart here.

Tests used:
[1] = Solubility determinations in SIF buffers (FaSSIF, FeSSIF, FaSSGF); assay type: physicochemical; conditions: for XRPD (dried) / XRPD (wet): solid residue
Procedure: At this stage ca. 1 g of each front-runner salt form was prepared. Salt forms that offered significant solubility and stability advantages over the non-ionized API were prioritized. […] Scale Up
The solubility of the salts below was determined in FaSSIF, FeSSIF and FaSSGF by reference to the calibration curve of amorphous compound 1.
Separate portions of compound 1 were weighed out into aluminum boats and were charged to the relevant volumetric flasks. Solutions were made to volume with 1 to 1 (v/v) acetonitrile/purified water to give calibrants of known API concentrations and analyzed by HPLC, suitable to determine the concentration of compound 1 free base in the SIF buffer solubility study.
Each sample (150 mg) was suspended in the relevant SIF buffer (5.0 ml), to give a concentration of 30 mg/ml and maintain at 37° C. for 24 h. The pH was adjusted using 1 M HCl or 1 M NaOH, to ensure that the suspension remains in range.
Sample (1 ml) of the well-stirred representative suspensions was obtained at 1 h, 3 h, 6 h and 24 h and the pH was recorded. The pH of the bulk suspension was re-adjusted when necessary. The obtained sample from each vial was centrifuged, and the supernatant was analysed by HPLC (note, the analyte was diluted, when outside of the calibration range); XRPD analysis was performed on the wet sample pellet for evidence of form change, as well as on the oven-dried pellet (undervacuum at 40° C.).

[2] = assay type: physicochemical
Procedure: Equilibrium Humidity Evaluation (40° C./75% RH for 10 Days)
100 mg portions of compound 1 salts (for inputs see table below) were placed in the relevant open vials. The powders were finely divided and distributed evenly over the base of the vial, such that equal material coverage across the panel was observed. These samples were then maintained 40°C. under 75% RH. The samples were sub-sampled at intervals of 5 and 10 days and analysed by ^1H NMR, HPLC, XRPD, DSC, TGA and PLM, for evidence of phase change or chemical degradation (FIG. 269-297).

[3] = FaSSGF (ph 1.6), t = 1 h@37° C.
[4] = FaSSGF (ph 1.6), t = 3 h@37° C.
[5] = FaSSGF (ph 1.6), t = 6 h@37° C.
[6] = FaSSGF (ph 1.6), t = 24 h @37° C.
[7] = FaSSIF (ph 6.5), t = 1 h@37° C.
[8] = FaSSIF (ph 6.5), t = 3 h@37° C.
[9] = FaSSIF (ph 6.5), t = 6 h@37° C.
[10] = FaSSIF (ph 6.5), t = 24 h @37° C.
[11] = FeSSIF (ph 5.0), t = 1 h@37° C.
[12] = FeSSIF (ph 5.0), t = 3 h@37° C.
[13] = FeSSIF (ph 5.0), t = 6 h@37° C.
[14] = FeSSIF (ph 5.0), t = 24 h @37° C.

COc1ccc2c(ccn2C[C@@H](C)N(C)C)c1.O=C(O)c1ccccc1 [Compound 1 · Benzoate]
Solubility [1, 3]: 28.74 mg/mL | Solubility [1, 4]: 26.85 mg/mL | Solubility [1, 5]: 26.33 mg/mL | Solubility [1, 6]: 25.59 mg/mL | Solubility [1, 7]: >30 mg/mL | Solubility [1, 8]: >30 mg/mL | Solubility [1, 9]: >30 mg/mL | Solubility [1, 10]: >30 mg/mL | Solubility [1, 11]: >30 mg/mL | Solubility [1, 12]: >30 mg/mL | Solubility [1, 13]: >30 mg/mL | Solubility [1, 14]: >30 mg/mL | XRPD (dried) [1, 3]: Benzoic acid | XRPD (wet) [1, 3]: Benzoic acid | XRPD (dried) [1, 4]: Benzoic acid | XRPD (wet) [1, 4]: Benzoic acid | XRPD (dried) [1, 5]: Benzoic | XRPD (wet) [1, 5]: Benzoic acid | XRPD (dried) [1, 6]: Benzoic | XRPD (wet) [1, 6]: Benzoic

COc1ccc2c(ccn2C[C@@H](C)N(C)C)c1.Cl [Compound 1 · HCl]
Solubility [1, 3]: >30 mg/mL | Solubility [1, 4]: >30 mg/mL | Solubility [1, 5]: >30 mg/mL | Solubility [1, 6]: >30 mg/mL | Solubility [1, 7]: >30 mg/mL | Solubility [1, 8]: >30 mg/mL | Solubility [1, 9]: >30 mg/mL | Solubility [1, 10]: >30 mg/mL | Solubility [1, 11]: >30 mg/mL | Solubility [1, 12]: >30 mg/mL | Solubility [1, 13]: >30 mg/mL | Solubility [1, 14]: >30 mg/mL

COc1ccc2c(ccn2C[C@@H](C)N(C)C)c1.O=C(O)c1ccccc1 [Benzoate salt]
HPLC peak RRT 1.00 (reference peak) ([2]; salt before storage (t = 0)): 99.64 | HPLC peak RRT 1.09 ([2]; salt before storage (t = 0)): 0.03 | HPLC peak RRT 1.16 ([2]; salt before storage (t = 0)): 0.03 | HPLC peak RRT 1.19 ([2]; salt before storage (t = 0)): 0.10 | HPLC peak RRT 1.20 ([2]; salt before storage (t = 0)): 0.02 | HPLC peak RRT 1.24 ([2]; salt before storage (t = 0)): 0.06 | HPLC peak RRT 1.26 ([2]; salt before storage (t = 0)): 0.01 | HPLC peak RRT 1.35 ([2]; salt before storage (t = 0)): 0.10 | HPLC peak RRT 0.98 ([2]; t = 5 d at 75% RH at 40° C.): 0.04 | HPLC peak RRT 1.00 (reference peak) ([2]; t = 5 d at 75% RH at 40° C.): 99.64 | HPLC peak RRT 1.16 ([2]; t = 5 d at 75% RH at 40° C.): 0.03 | HPLC peak RRT 1.19 ([2]; t = 5 d at 75% RH at 40° C.): 0.10 | HPLC peak RRT 1.20 ([2]; t = 5 d at 75% RH at 40° C.): 0.02 | HPLC peak RRT 1.26 ([2]; t = 5 d at 75% RH at 40° C.): 0.05 | HPLC peak RRT 1.35 ([2]; t = 5 d at 75% RH at 40° C.): 0.11 | HPLC peak RRT 0.98 ([2]; t = 10 d at 75% RH at 40° C.): 0.04 | HPLC peak RRT 1.00 (reference peak) ([2]; t = 10 d at 75% RH at 40° C.): 99.52 | HPLC peak RRT 1.08 ([2]; t = 10 d at 75% RH at 40° C.): 0.05 | HPLC peak RRT 1.16 ([2]; t = 10 d at 75% RH at 40° C.): 0.04 | HPLC peak RRT 1.19 ([2]; t = 10 d at 75% RH at 40° C.): 0.13 | HPLC peak RRT 1.20 ([2]; t = 10 d at 75% RH at 40° C.): 0.02 | HPLC peak RRT 1.26 ([2]; t = 10 d at 75% RH at 40° C.): 0.07 | HPLC peak RRT 1.35 ([2]; t = 10 d at 75% RH at 40° C.): 0.12
